Data from patent publication US10562857B2 (AFASCI, Inc., priority 2015, dated 2020).

Target: T1, Cav3.2 channel (Homo sapiens, UniProt O95180)
T1 construct: expressed in transfected cells; host or cells: HEK-293, tetracycline inducible expression system (Invitrogen)
Assay: Whole-cell patch clamp of T-type Cav3.2 channel expressed in HEK293 cells
Type: cell-based
Conditions: for IC50: Table 1, tested at at least 4 concentrations, read-out: IC50; for inhibition at 1 µM / inhibition at 3 µM: HEK293, Table 1 primary screening; for inhibition at 3 µM: 3 μM as indicated in cell, read-out: % inhibition at 3 μM
Method: Cav3.1, Cav3.2 or Cav3.3 channels were expressed in human embryonic kidney (HEK)-293 cells using a tetracycline inducible expression system (Invitrogen). Cells were maintained in 25 cm^2 tissue culture flasks at 37° C., 5% CO2, and 100% relative humidity in D-MEM/F12 (Dulbecco's Modified Eagle Medium/Nutrient Mixture F-12; Gibco) supplemented with fetal bovine serum (FBS, 10% v/v), sodium pyruvate (0.5 mM, Gibco), penicillin-streptomycin (100 U/mL, 100 μg/mL) and Geneticin® Selective antibiotic (G418; 0.5 mg/mL). Cells were detached from the flask base using a non-enzymatic cell dissociation solution (Cellstripper, Corning), removed and re-seeded on to poly-D-lysine coated glass coverslips in 35 mm dishes. Cells in dishes were further supplemented with G418 at a final concentration of 1 mg/mL and after 24 hours, expression of Cav3.2 was induced with 1 μg/mL tetracycline. The medium for the HEK-293 cells was composed of D-MEM/F-12 (Dulbecco's Modified Eagle Medium/Nutrient Mixture F-12; Gibco, #11330-032) and 15 mM HEPES buffer, with L-glutamine and pyridoxine hydrochloride. It was supplemented with FBS (Fetal Bovine Serum), P/S (Penicillin/Streptomycin) (Gibco, #15140-122), and sodium pyruvate 100 mM (Gibco, #11360-070). At least 24 hours before the assay, expression of the alpha-2-delta-1 and beta2a subunits of the calcium channel were induced with 1 ug/mL tetracycline.
Whole-cell voltage clamp recordings were performed on rat or mouse DRG neurons within 2 days after acutely dissociation or cultured HEK293 cells expressing T-type channels (encoded by Cav3.1, Cav3.2 or Cav3.3 channels). All experiments were performed at room temperature (around 21° C.). Whole-cell currents were recorded using a MultiClamp 700B amplifier and analyzed offline with pCLAMP10.4 software (Molecular Devices, LLC, Sunnyvale Calif., USA). To record calcium currents in DRG and HEK293 cells, the external solution was composed (in mM) of 115 choline-Cl, 30 TEA-Cl, 2 CaCl2, 10 glucose and 10 HEPES (pH 7.3-7.4 adjusted with TEA-OH; osmolality verified as 295 mOsm/kg). The internal solution was composed (in mM) of 125 CsCl, 10 HEPES (acid), 10 EGTA (ethylene glycol tetraacetic acid), 1 CaCl2, 1 MgCl2, 4 MgATP and 0.3 MgGTP (pH 7.3-7.4 adjusted with CsOH; osmolality verified as 295 mOsm/kg). Since the sodium ions were absent in the external solution, tetrodoctoxin was not needed. Calcium currents were recorded at a holding potential of −100 mV and then depolarized to −30 mV for 100 ms to activate either Cav3.1, Cav3.2, or Cav3.3 expressed in HEK cells. An interpulse interval of 10 seconds allowed the channel recovery from inactivation, and achieved stable current recordings. To record sodium (Na^+) currents in DRG neurons, the external solution used the modified Krebs solution specified above. The internal solution was composed (in mM) of 120 CsF, 10 HEPES, 11 EGTA, 1 CaCl2, 1 MgCl2, 10 TEA-Cl, 4 MgATP and 0.3 MgGTP (pH 7.3-7.4 adjusted with CsOH). […] To record potassium currents in DRG neurons, the external solution used the modified Kreb's solution specified above. The internal solution was composed (in mM) of 65 KCl, 80 KF, 5 KOH, 10 EGTA, 2 MgATP (pH 7.3-7.4 adjusted with KOH). Recording electrodes were fabricated using a P-87 puller (Sutter Instrument Co., Novato, Calif., USA). The tip of resistance was 3-4 MQ in bath and the series resistance was less than 10 MΩ after whole cell configuration. All reagents were purchased from Sigma unless specified otherwise. Test compounds were usually applied via a rapid solution exchange system with 8 fine polyplastic tubings (100 μm, OD) glued in a holder in parallel and located closely to the recorded cells. […]

T1 sequence (O95180 whole entry): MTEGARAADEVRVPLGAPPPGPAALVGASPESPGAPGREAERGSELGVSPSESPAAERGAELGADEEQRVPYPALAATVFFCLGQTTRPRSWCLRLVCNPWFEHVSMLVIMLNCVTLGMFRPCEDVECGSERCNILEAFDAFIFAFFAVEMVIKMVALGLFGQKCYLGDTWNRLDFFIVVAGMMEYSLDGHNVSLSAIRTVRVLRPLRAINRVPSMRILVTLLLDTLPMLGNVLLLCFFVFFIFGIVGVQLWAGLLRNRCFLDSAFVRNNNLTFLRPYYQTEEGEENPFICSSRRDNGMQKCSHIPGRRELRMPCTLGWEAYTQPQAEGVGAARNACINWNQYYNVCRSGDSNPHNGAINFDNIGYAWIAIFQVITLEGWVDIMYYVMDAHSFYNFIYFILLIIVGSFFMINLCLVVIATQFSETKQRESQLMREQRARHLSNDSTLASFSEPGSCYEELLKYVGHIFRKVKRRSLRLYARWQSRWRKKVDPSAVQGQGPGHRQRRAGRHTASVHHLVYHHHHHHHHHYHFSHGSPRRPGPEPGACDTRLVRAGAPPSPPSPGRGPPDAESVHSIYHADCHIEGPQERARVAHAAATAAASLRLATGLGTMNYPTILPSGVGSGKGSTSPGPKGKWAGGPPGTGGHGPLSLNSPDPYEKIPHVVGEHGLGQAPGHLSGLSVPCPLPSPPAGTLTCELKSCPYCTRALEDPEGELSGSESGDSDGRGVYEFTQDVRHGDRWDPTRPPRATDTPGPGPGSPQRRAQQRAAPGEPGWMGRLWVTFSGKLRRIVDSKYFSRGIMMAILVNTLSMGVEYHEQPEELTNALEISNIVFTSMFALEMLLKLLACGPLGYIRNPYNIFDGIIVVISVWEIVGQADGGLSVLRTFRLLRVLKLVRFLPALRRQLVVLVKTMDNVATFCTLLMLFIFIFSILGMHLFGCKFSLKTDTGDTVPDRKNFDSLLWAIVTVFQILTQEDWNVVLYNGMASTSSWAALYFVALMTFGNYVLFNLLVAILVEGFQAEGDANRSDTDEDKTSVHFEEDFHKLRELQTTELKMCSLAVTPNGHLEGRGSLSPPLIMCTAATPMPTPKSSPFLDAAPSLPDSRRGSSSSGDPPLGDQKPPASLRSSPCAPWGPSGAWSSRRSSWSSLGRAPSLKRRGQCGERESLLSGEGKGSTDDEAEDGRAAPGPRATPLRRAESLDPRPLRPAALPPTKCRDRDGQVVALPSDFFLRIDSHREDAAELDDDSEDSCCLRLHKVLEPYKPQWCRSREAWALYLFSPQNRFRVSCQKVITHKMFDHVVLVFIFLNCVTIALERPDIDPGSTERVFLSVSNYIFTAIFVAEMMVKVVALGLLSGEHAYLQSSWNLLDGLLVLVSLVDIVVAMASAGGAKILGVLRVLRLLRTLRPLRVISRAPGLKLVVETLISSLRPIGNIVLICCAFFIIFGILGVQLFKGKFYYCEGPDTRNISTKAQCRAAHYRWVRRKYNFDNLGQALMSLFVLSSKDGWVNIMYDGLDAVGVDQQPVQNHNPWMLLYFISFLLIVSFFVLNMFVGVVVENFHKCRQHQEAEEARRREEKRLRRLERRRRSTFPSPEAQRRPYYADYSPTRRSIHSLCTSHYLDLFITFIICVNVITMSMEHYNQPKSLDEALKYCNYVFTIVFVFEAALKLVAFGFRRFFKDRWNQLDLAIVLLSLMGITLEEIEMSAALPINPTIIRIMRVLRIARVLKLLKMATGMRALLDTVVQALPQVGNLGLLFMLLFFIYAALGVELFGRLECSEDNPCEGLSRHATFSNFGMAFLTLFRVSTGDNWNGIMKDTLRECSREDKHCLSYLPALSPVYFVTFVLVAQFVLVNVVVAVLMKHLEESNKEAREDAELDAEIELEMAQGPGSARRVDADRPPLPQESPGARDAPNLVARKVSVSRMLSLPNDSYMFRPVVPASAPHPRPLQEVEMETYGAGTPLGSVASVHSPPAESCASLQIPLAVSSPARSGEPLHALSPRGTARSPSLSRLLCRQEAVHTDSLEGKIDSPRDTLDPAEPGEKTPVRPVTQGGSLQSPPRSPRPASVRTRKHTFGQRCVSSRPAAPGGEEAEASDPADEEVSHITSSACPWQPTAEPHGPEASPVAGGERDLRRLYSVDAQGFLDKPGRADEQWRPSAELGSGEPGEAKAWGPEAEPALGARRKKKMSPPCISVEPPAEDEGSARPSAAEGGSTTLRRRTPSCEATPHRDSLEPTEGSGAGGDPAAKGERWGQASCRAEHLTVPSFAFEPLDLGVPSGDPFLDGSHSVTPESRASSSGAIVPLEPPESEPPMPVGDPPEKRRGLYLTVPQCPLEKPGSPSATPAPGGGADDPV

`CC(C)(C)NC(=O)CN1CCC2(CC1)C[C@@H]2NC(=O)[C@]12C[C@@]3(F)C[C@](F)(C[C@](F)(C3)C1)C2` (single isomer, unassigned) [Example 131, (3S,5S,7S)—N—((R)-6-(2-(tert-Butylamino)-2-oxoethyl)-6-azaspiro[2.5]octan-1-yl)-3,5,7-trifluoroadamantane-1-carboxamide or (3S,5S,7S)—N—((S)-6-(2-(tert-Butylamino)-2-oxoethyl)-6-azaspiro[2.5]octan-1-yl)-3,5,7-trifluoroadamantane-1-carboxamide] was tested, and the IC50 was 620 nM.
`CC(C)(C)NC(=O)CN1CCC(CNC(=O)CCc2cccc(Cl)c2)CC1` [Example 99, N-((1-(2-(tert-Butylamino)-2-oxoethyl)piperidin-4-yl)methyl)-3-(3-chlorophenyl)propanamide] showed an inhibition at 1 µM of 75%.
Compound `CC(C)(C)CCN1CCC2(CC1)CC2NC(=O)c1ccccc1Cl` (stereo not shown) [Example 20, 2-Chloro-N-(6-(3,3-dimethylbutyl)-6-azaspiro[2.5]octan-1-yl)benzamide] has an inhibition at 1 µM of 37%.
In the case of `O=C(CN1CCC2(CC1)CC2NC(=O)c1cc(Cl)cc(Cl)c1)c1ccc(C(F)(F)F)cc1` (stereo not shown) [Example 50, 3,5-Dichloro-N-(6-(2-oxo-2-(4-(trifluoromethyl)phenyl)ethyl)-6-azaspiro[2.5]octan-1-yl)benzamide], the IC50 is reported as 80 nM.
`CC(C)(C)CCN1CCC2(CCC2NC(=O)c2cc(Cl)cc(Cl)c2)CC1` (stereo not shown) [Example 69, 3,5-Dichloro-N-(7-(3,3-dimethylbutyl)-7-azaspiro[3.5]nonan-1-yl)benzamide] showed an IC50 of 280 nM.
In the case of `CC(C)NC(=O)CN1CCC2(CC1)CC2NC(=O)c1cc(F)cc(Cl)c1` (single isomer, unassigned) [Example 140, (R)-3-Chloro-5-fluoro-N-(6-(2-(isopropylamino)-2-oxoethyl)-6-azaspiro[2.5]octan-1-yl)benzamide or (S)-3-Chloro-5-fluoro-N-(6-(2-(isopropylamino)-2-oxoethyl)-6-azaspiro[2.5]octan-1-yl)benzamide], the IC50 is reported as 520 nM.
Work on `CC(C)(C)CCN1CCC2(CC1)CC2NC(=O)C12CC3CC(CC(C3)C1)C2` (stereo not shown) [Example 30, N-[6-(3,3-Dimethylbutyl)-6-azaspiro[2.5]octan-1-yl]adamantane-1-carboxamide] yielded an IC50 of 90 nM.
For `CC(C)(C)CCN1CCC2(CC1)CC2NC(=O)c1cccc(C#N)c1` (stereo not shown) [Example 34, 3-Cyano-N-(6-(3,3-dimethylbutyl)-6-azaspiro[2.5]octan-1-yl)benzamide], the IC50 was 1400 nM.
Compound `CC(C)(C)C(=O)CN1CCC2(CC1)CC2NC(=O)c1cc(Cl)cc(Cl)c1` (stereo not shown) [Example 49, 3,5-Dichloro-N-(6-(3,3-dimethyl-2-oxobutyl)-6-azaspiro[2.5]octan-1-yl)benzamide] has an IC50 of 160 nM.
Compound `CC(C)(C)CCN1CCC2(CC1)CC2C(=O)Nc1cc(Cl)cc(Cl)c1` (stereo not shown) [Example 91, N-(3,5-Dichlorophenyl)-6-(3,3-dimethylbutyl)-6-azaspiro[2.5]octane-1-carboxamide] has an IC50 of 60 nM.
With `CC(C)(C)NC(=O)CN1CCC2(CC1)CC2CNC(=O)c1cc(Cl)cc(Cl)c1` (stereo not shown) [Example 87, N-((6-(2-(tert-Butylamino)-2-oxoethyl)-6-azaspiro[2.5]octan-1-yl)methyl)-3,5-dichlorobenzamide] the IC50 was 690 nM.
`CC(C)(C)NC(=O)CN1CCC2(CC1)C[C@@H]2NC(=O)c1cc(Cl)cc(Cl)c1` (single isomer, unassigned) [Example 56, (S)—N-(6-(2-(tert-Butylamino)-2-oxoethyl)-6-azaspiro[2.5]octan-1-yl)-3,5-dichlorobenzamide or (R)—N-(6-(2-(tert-Butylamino)-2-oxoethyl)-6-azaspiro[2.5]octan-1-yl)-3,5-dichlorobenzamide] gave an IC50 of 190 nM.
`CC(C)(C)C(=O)CN1CCC2(CC1)C[C@H]2NC(=O)c1cc(F)cc(Cl)c1` (single isomer, unassigned) [Example 134, (R)-3-Chloro-N-(6-(3,3-dimethyl-2-oxobutyl)-6-azaspiro[2.5]octan-1-yl)-5-fluorobenzamide or (S)-3-Chloro-N-(6-(3,3-dimethyl-2-oxobutyl)-6-azaspiro[2.5]octan-1-yl)-5-fluorobenzamide] was tested, and the IC50 was 120 nM.
For `Clc1cc(Cl)cc(NCC2CC23CCN(CCc2ccccc2)CC3)c1` (stereo not shown) [Example 95], the inhibition at 1 µM was 67%.
`O=C(NC1CC12CCN(CCC1CCOCC1)CC2)c1cc(Cl)cc(Cl)c1` (stereo not shown) [Example 47, 3,5-Dichloro-N-(6-(2-(tetrahydro-2H-pyran-4-yl)ethyl)-6-azaspiro[2.5]octan-1-yl)benzamide] showed an IC50 of 160 nM.
`CC(C)(C)NC(=O)CN1CCC2(CCC2NC(=O)c2cc(Cl)cc(Cl)c2)CC1` (stereo not shown) [Example 71, N-(7-(2-(tert-Butylamino)-2-oxoethyl)-7-azaspiro[3.5]nonan-1-yl)-3,5-dichlorobenzamide] showed an IC50 of 200 nM.
In the case of `CC(C)(C)NC(=O)CN1CCC2(CC1)C[C@H]2C(=O)Nc1cc(F)cc(C(F)(F)F)c1` (single isomer, unassigned) [Example 133, (R)-6-(2-(tert-Butylamino)-2-oxoethyl)-N-(3-fluoro-5-(trifluoromethyl)phenyl)-6-azaspiro[2.5]octane-1-carboxamide or (S)-6-(2-(tert-Butylamino)-2-oxoethyl)-N-(3-fluoro-5-(trifluoromethyl)phenyl)-6-azaspiro[2.5]octane-1-carboxamide], the IC50 is reported as 200 nM.
`O=C(NC1CC12CCN(CCc1ccccc1)CC2)c1ccc(Cl)c(Cl)c1` (stereo not shown) [Example 8, 3,4-Dichloro-N-(6-phenethyl-6-azaspiro[2.5]octan-1-yl)benzamide] was tested, and the IC50 was 120 nM.
`O=C(CN1CCC2(CC1)CC2NC(=O)c1cc(F)cc(Cl)c1)c1ccc(F)cc1` (single isomer, unassigned) [Example 138, (R)-3-Chloro-5-fluoro-N-(6-(2-(4-fluorophenyl)-2-oxoethyl)-6-azaspiro[2.5]octan-1-yl)benzamide or (S)-3-Chloro-5-fluoro-N-(6-(2-(4-fluorophenyl)-2-oxoethyl)-6-azaspiro[2.5]octan-1-yl)benzamide] showed an IC50 of 180 nM.
With `CC(C)(C)NC(=O)CN1CCC2(CC1)CC2NC(=O)c1ccccc1` (stereo not shown) [Example 4, N-(6-(2-(tert-Butylamino)-2-oxoethyl)-6-azaspiro[2.5]octan-1-yl)benzamide] the inhibition at 3 µM was 24.7%.
In the case of `O=C(Nc1nnc(-c2ccccc2)o1)c1cnccn1` [Example 124, N-(5-Phenyl-1,3,4-oxadiazol-2-yl)pyrazine-2-carboxamide], the inhibition at 1 µM is reported as 7.1%.
Compound `O=C(NC1CC12CCN(CCc1ccccc1)CC2)c1ccccc1` (stereo not shown) [Example 3, N-(6-Phenethyl-6-azaspiro[2.5]octan-1-yl)benzamide] has an inhibition at 3 µM of 47.7%.
Work on `O=C(NC1CC12CCN(CCCC1CCOCC1)CC2)c1cc(Cl)cc(Cl)c1` (stereo not shown) [Example 48, 3,5-Dichloro-N-(6-(3-(tetrahydro-2H-pyran-4-yl)propyl)-6-azaspiro[2.5]octan-1-yl)benzamide] yielded an IC50 of 260 nM.
Compound `O=C(NC1CC12CCN(CCc1ccc(C(F)(F)F)cc1)CC2)c1cc(Cl)cc(Cl)c1` (stereo not shown) [Example 43, 3,5-Dichloro-N-(6-(4-(trifluoromethyl)phenethyl)-6-azaspiro[2.5]octan-1-yl)benzamide] has an IC50 of 120 nM.
`O=C(CCc1cccc(Cl)c1)Nc1nnc(-c2ccccc2)o1` [Example 119, 3-(3-Chlorophenyl)-N-(5-phenyl-1,3,4-oxadiazol-2-yl)propanamide] gave an inhibition at 3 µM of 5%.
